Laboratory results from patent US8309612B2, “Method for treating age-related macular degeneration” (Santen Pharmaceutical Co., Ltd., priority 2007, dated 2012).

Tests used:
[1] = test system: carotid artery remodeling and neovascularization; conditions: p22phox transgenic mice; cited from earlier work
[2] = test system: renal neovascularization; conditions: ZDF rats, repeated administration; cited from earlier work
[3] = test system: choroidal neovascularization; assay: Rat model of krypton laser-induced choroidal neovascularization; type: in vivo; conditions: for Inhibition rate (%): BID, oral, 12 days, choroidal neovascularization incidence on day 7 after photocoagulation vs vehicle
Procedure: The usefulness of Ebselen was evaluated using a rat model of laser-induced choroidal neovascularization.
A rat was given general anesthesia by intramuscular administration of 1 ml/kg of a mixed solution of a 5% (w/v) ketamine hydrochloride injection solution and a 2% xylazine hydrochloride injection solution (7:1), and a 0.5% (w/v) tropicamide-0.5% phenylephrine hydrochloride ophthalmic solution was instilled into the eyes to cause mydriasis, and then, photocoagulation was performed with a krypton laser photocoagulation apparatus. The photocoagulation was performed in a posterior fundus at eight spots per eye sparsely by focusing on the retinal deep layer avoiding thick retinal blood vessels (coagulation conditions: spot size: 100 μm, output: 100 mW, coagulation time: 0.1 sec). After the photocoagulation, the ocular fundus was photographed, and the site where the laser was irradiated was confirmed. […]
On day 7 after photocoagulation, each rat was given general anesthesia by intramuscular administration of 1 ml/kg of a mixed solution of a 5% (w/v) ketamine hydrochloride injection solution and a 2% xylazine hydrochloride injection solution (7:1), and a 0.5% (w/v) tropicamide-0.5% phenylephrine hydrochloride ophthalmic solution was instilled into the eyes to cause mydriasis, and then, 0.1 ml of a 10% fluorescein solution was injected into the tail vein, and fluorescence fundus photography was performed. In the fluorescence fundus photography, a spot where fluorescence leakage was not observed (absence of neovascularization) was judged as negative, and a spot where fluorescence leakage was observed was judged as positive. When there are two photocoagulation sites where a little fluorescence leakage was observed, they were judged as positive (presence of neovascularization). The choroidal neovascularization incidence rate (%) was calculated from the number of positive spots relative to the eight laser irradiation spots in accordance with Equation 1, and the inhibition rate (%) of the drug to be evaluated was calculated in accordance with Equation 2. […]

[4] = test system: ARPE-19 cells; assay: Protective effect on HNE-induced cell damage in ARPE-19 cells; type: cell-based, human; conditions: for Cell protective effect on HNE-induced cell damage (in words): 12.5 μM, HNE 100 μM
Source text: It is known that reactive oxygen species promote membrane lipid peroxidation, resulting in production of HNE (Exp. Eye. Res., 2006; 83: 165-175). HNE forms a covalent bond with a cysteine, lysine or histidine side chain of a protein and inhibits the normal function of the protein, and therefore has a high cytotoxic activity (Invest. Opthalmol. Vis. Sci. 2007; 48: 3469-3479). It is reported that an HNE-modified protein is present also in drusen beneath the retina which is considered to be a deposit inducing AMD, and it is considered to cause retinal pigment epithelial cell damage and also considered to be one of the causes of development or progression of a disease attributed to retinal pigment epithelial damage (Mol. Vis., 2005; 11: 1122-1134, Invest. Opthalmol. Vis. Sci., 2003; 44: 3663-3668, FEBS Lett., 2002; 528: 217-221). Therefore, by using ARPE-19 cells, the protective effect of Ebselen on HNE-induced cell damage was evaluated. In addition, the effects of quercetin and edaravone which are compounds generally known to have an antioxidative activity were also evaluated at the same time, and comparison study was performed.
(§1) ARPE-19 cells were seeded in a 96-well plate at 5×10^3 cells/well and cultured for 24 hours under the conditions of 37° C. in a 5% CO2/95% air atmosphere. As a culture medium for ARPE-19, DMEM/F12 containing 10% fetal bovine serum, 2 mM L-glutamine and 100 U/mL penicillin and 100 μg/mL streptomycin was used. Subsequently, the culture medium was removed and exchanged with a culture medium containing Ebselen, quercetin or edaravone, or a vehicle culture medium. Incidentally, each compound was dissolved in DMSO and diluted to 1000-fold with the culture medium to prepare a culture medium containing each compound at 12.5 μM. The vehicle culture medium was prepared by diluting DMSO without containing the compound to 1000-fold with the culture medium. After the cells were cultured for 24 hours under the conditions of 37° C. in a 5% CO2/95% air atmosphere, the culture medium was removed and exchanged with a culture medium containing HNE (100 μM). After the cells were further cultured for 24 hours under the above-mentioned conditions, the cell viability was measured. In the measurement, Cell Counting Kit-8 (Dojin Kagaku) was used.
(§2) The mean±the standard error (%) of the cell viability of each compound-treated group was expressed by taking the mean value of the cell viability of the untreated cells as 100%. The case number in each group is 4.

[5] = test system: ischemia-induced neovascularization in hindlimb tissues; conditions: hindlimb tissues of mice; cited from earlier work
[6] = test system: ARPE-19 cells (a human retinal pigment epithelial cell line); assay: Protective effect on hydrogen peroxide-induced cell damage in ARPE-19 cells; type: cell-based; conditions: for Cell protective effect on hydrogen peroxide-induced cell damage (in words): 6.25 μM or 12.5 μM, hydrogen peroxide 250 μM
Procedure: Oxidative stress causes retinal pigment epithelial dysfunction and is considered to be one of the causes of development or progression of AMD (Proc. Natl. Acad. Sci. USA, 2006; 103: 11282-11287). Therefore, by using ARPE-19 cells (a human retinal pigment epithelial cell line), the protective effect of Ebselen on hydrogen peroxide-induced cell damage was evaluated. In addition, the effects of quercetin and edaravone which are compounds generally known to have an antioxidative activity were also evaluated at the same time, and comparison study was performed.
as §1, with “compound at 6.25 μM or 12.5 μM.” for “compound at 12.5 μM.”, “medium containing hydrogen peroxide (250 μM). After” for “medium containing HNE (100 μM). After”
as §2

SMILES: O=c1c2ccccc2[se]n1-c1ccccc1 [Ebselen, 2-phenyl-1,2-benzisoselenazol-3(2H)-one]
- Effect on carotid artery remodeling and neovascularization (in words) [1]: inhibited endogenous hydrogen peroxide-induced carotid artery remodeling and neovascularization
- Effect on renal neovascularization (in words) [2]: renal neovascularization was restored
- Inhibition rate (%) ([3]; each dose: 5 mg/kg): 26.9%
- Inhibition rate (%) ([3]; each dose: 15 mg/kg): 28.9%
- Effect on choroidal neovascularization (in words) ([3]; rat models of laser-induced choroidal neovascularization, 5 or 15 mg/kg BID oral): inhibits choroidal neovascularization
- Cell protective effect on HNE-induced cell damage (in words) [4]: strongly protected the cells against HNE-induced cell damage
- Effect on ischemia-induced neovascularization (in words) [5]: inhibited ischemia-induced neovascularization
- Cell protective effect on hydrogen peroxide-induced cell damage (in words) [6]: strongly protected the cells against hydrogen peroxide-induced cell damage in a concentration-dependent manner

SMILES: CC1=NN(c2ccccc2)C(=O)C1 [Edaravone, edaravone]
- Cell protective effect on HNE-induced cell damage (in words) [4]: not found to have a cell protective effect
- Cell protective effect on hydrogen peroxide-induced cell damage (in words) [6]: not found to have a cell protective effect at either concentration

SMILES: O=c1c(O)c(-c2ccc(O)c(O)c2)oc2cc(O)cc(O)c12 [Quercetin, quercetin]
- Cell protective effect on HNE-induced cell damage (in words) [4]: not found to have a cell protective effect
- viability at 12.5 µM ([4]; Homo sapiens, ARPE-19, compound 12.5 μM, 24 h pretreatment, then HNE 100 μM 24 h, untreated cells = 100%, mean ± standard error): 28.6 ± 0.9%
- Cell protective effect on hydrogen peroxide-induced cell damage (in words) [6]: not found to have a cell protective effect at either concentration
- viability at 6.25 µM ([6]; Homo sapiens, ARPE-19, compound 6.25 μM, 24 h pretreatment, then hydrogen peroxide 250 μM 24 h, untreated cells = 100%, mean ± standard error): 8 ± 0.1%
- viability at 12.5 µM ([6]; Homo sapiens, ARPE-19, compound 12.5 μM, 24 h pretreatment, then hydrogen peroxide 250 μM 24 h, untreated cells = 100%, mean ± standard error): 3.8 ± 0.4%
